{"source": "PubChem BioAssay AID493130", "about": "(Broad Institute, 2011)", "note": "Records with an inconclusive call do not appear. Activity calls are given as the source filed them.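 Rule for the calls: active = signal-lowering compounds whose fitted half-maximal concentration is at most ten times their highest tested dose; inconclusive = flat fit between -30 and -70%, or poor fit; inactive = flat within 30%, signal rising, or potency beyond limit.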", "data": [{"target": "POS-1 (Caenorhabditis elegans) binding to mex-3 RNA", "experiment": "C. elegans POS-1 RNA interaction disruptors – biochemical, fluorescence polarization, cherry-picked samples, set 2, counter-screen for MEX-5 RNA-binding inhibitor project, dose response (AID 493130);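 note: POS-1 as maltose binding protein fusion made in E. coli with FITC RNA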", "settings": "POS-1/mex-3 RNA fluorescence polarization, 1 h", "values": [{"compound": "CCCCCCc1cc2cc(C(=O)NC)c(=N)oc2cc1O", "AC50": "1.62 µM"}, {"compound": "NS(=O)(=O)c1ccc(N=Nc2c(=O)[nH]n3c(=O)c4c([nH]c23)CCCC4)cc1", "AC50": "0.251 µM"}, {"compound": "Nc1c(C(=O)c2cccs2)sc2nsc(SCCN3CCCCC3)c12", "AC50": "6.39 µM"}, {"compound": "O=c1[nH]c(/C=C/c2cccc3ccccc23)nc2ccccc12", "AC50": "> 10 µM (inactive)"}, {"compound": "O=C1CCNc2ccc(-c3ccccc3)cc21", "AC50": "1.34 µM"}, {"compound": "CCNC(=S)N/N=C/c1sc(N2CCCCC2)nc1-c1cccs1", "AC50": "4.68 µM"}, {"compound": "Cc1cc(C)c2c(c1)NC(C(=O)O)C1CC=CC21", "note": "(stereo not drawn)", "AC50": "6.96 µM"}, {"compound": "CCCCOc1ccc2c(c1)/C(=C(\\C(Cl)=C(Cl)Cl)[N+](=O)[O-])N2", "AC50": "8.54 µM"}, {"compound": "CC(=O)Nc1ccc(N2C(=O)c3cccc4c(O)ccc(c34)C2=O)cc1", "AC50": "1.41 µM"}]}, {"target": "POS-1 (Caenorhabditis elegans) binding to mex-3 RNA", "experiment": "C. elegans POS-1 RNA interaction disruptors – biochemical, fluorescence polarization, cherry-picked samples, set 2, counter-screen for MEX-5 RNA-binding inhibitor project, dose response (AID 493130)", "settings": "POS-1/mex-3 RNA fluorescence polarization, 1 h; at 10 µM (top of the series)", "values": [{"compound": "CN(CC(=O)Nc1cccc(F)c1)C(=O)/C=C/c1cn(Cc2ccccc2)nc1-c1cccnc1", "activity change, negative = inhibition": "inactive"}, {"compound": "COc1cc2c3c(c1OC)-c1cc(O)ccc1CC3NCC2", "note": "(stereo not drawn)", "activity change, negative = inhibition": "inactive"}, {"compound": "CCc1nc2ccccc2c(=O)n1/N=C/c1ccc(OC)cc1", "activity change, negative = inhibition": "inactive"}, {"compound": "N#C/C(C(N)=O)=C1/CCc2ccccc2N1", "activity change, negative = inhibition": "inactive"}, {"compound": "Oc1ccc(Br)cc1C=Nc1cccn2cc(-c3ccccc3)nc12", "activity change, negative = inhibition": "inactive"}, {"compound": "COc1ccc(-c2csc(Nc3ccc(S(N)(=O)=O)cc3)n2)cc1OC", "activity change, negative = inhibition": "inactive"}, {"compound": "COc1ccc(C(=O)NNC(=O)C(=O)/C=C(\\O)c2ccc(C)cc2)cc1", "activity change, negative = inhibition": "inactive"}, {"compound": "O=C(O)c1ccc(N2Cc3ccccc3C2)cc1O", "activity change, negative = inhibition": "inactive"}, {"compound": "O=C(NNC(=O)c1ccco1)c1csc(N2CCOCC2)n1", "activity change, negative = inhibition": "inactive"}, {"compound": "CC(C#N)(Nc1ccc(Cl)cc1)c1cccnc1", "note": "(stereo not drawn)", "activity change, negative = inhibition": "inactive"}, {"compound": "Cc1cc(/C=C2\\C(=O)NC(=O)N(Cc3ccccc3)C2=O)c(C)n1-c1ccc(Cl)c(C(=O)O)c1", "activity change, negative = inhibition": "inactive"}, {"compound": "CSc1ccc(C(c2c(C(=O)O)[nH]c3ccccc23)c2c(C(=O)O)[nH]c3ccccc23)cc1", "activity change, negative = inhibition": "inactive"}, {"compound": "COc1ccccc1N=Nc1c(C)[nH][nH]c1=O", "activity change, negative = inhibition": "inactive"}, {"compound": "O=C(O)Cn1c(O)c(C2=c3ccccc3=NC2=O)sc1=O", "activity change, negative = inhibition": "inactive"}, {"compound": "CCOC(=O)Cc1csc(NC(=O)c2sc3nc4ccc(C)cc4cc3c2N)n1", "activity change, negative = inhibition": "inactive"}, {"compound": "COC(=O)c1ccccc1N=Nc1c(N)n[nH]c1N", "activity change, negative = inhibition": "inactive"}, {"compound": "Cc1cc(/C=C2\\C(=O)NC(=O)N(c3cccc(Br)c3)C2=O)c(C)n1C", "activity change, negative = inhibition": "inactive"}, {"compound": "CCCCn1c(N)c(N(CCOC)C(=O)c2ccc(Br)o2)c(=O)[nH]c1=O", "activity change, negative = inhibition": "inactive"}, {"compound": "C=CCc1cccc2cc(C(=O)NNC(=O)CC#N)c(=O)oc12", "activity change, negative = inhibition": "inactive"}, {"compound": "COc1ccc(/C=N/NC(=O)c2ccc(=O)[nH]n2)cc1OC", "activity change, negative = inhibition": "inactive"}, {"compound": "COc1cc2c(cc1O)CC1c3c(cc(O)c(OC)c3-2)CCN1C", "note": "(stereo not drawn)", "activity change, negative = inhibition": "inactive"}, {"compound": "CC(C)c1cc[n+](-c2nc([O-])sc2C=O)cc1", "activity change, negative = inhibition": "inactive"}, {"compound": "Oc1ccc(/C=N/Nc2ccc(Cl)nn2)c(O)c1O", "activity change, negative = inhibition": "inactive"}, {"compound": "O=C(NNC(=O)c1cc(Cl)ccc1[N+](=O)[O-])c1csc(N2CCOCC2)n1", "activity change, negative = inhibition": "inactive"}, {"compound": "COc1cc2c(cc1O)C[C@H]1NCCc3cc4c(c-2c31)OCO4", "activity change, negative = inhibition": "inactive"}, {"compound": "CCOc1ccccc1N=NC1C(=O)N(C(N)=S)N=C1C", "note": "(stereo not drawn)", "activity change, negative = inhibition": "inactive"}, {"compound": "COc1ccc(/C=C/C(=O)N/C(=C\\c2ccco2)C(=O)NCCc2nc3ccccc3[nH]2)cc1", "activity change, negative = inhibition": "inactive"}, {"compound": "COc1ccc(CC(=O)NNC(=O)c2cnccn2)cc1", "activity change, negative = inhibition": "inactive"}, {"compound": "COc1cccc(NC(=O)CSc2nc3ccccc3nc2N2CCOCC2)c1", "activity change, negative = inhibition": "inactive"}, {"compound": "Brc1ccc(-c2cn3nc4c(nc3n2)CCCC4)cc1", "activity change, negative = inhibition": "inactive"}, {"compound": "COc1cc2c(cc1OC)[C@@H](Cc1ccc(OCCC#N)cc1)N(C)CC2", "activity change, negative = inhibition": "inactive"}, {"compound": "CN(N)c1ccc2c(C(F)(F)F)cc(C(F)(F)F)nc2n1", "activity change, negative = inhibition": "inactive"}, {"compound": "Cc1ccc(Nc2nc(-c3ccc(C)cc3)c(CC(=O)O)s2)cc1", "activity change, negative = inhibition": "inactive"}, {"compound": "Oc1cccc(/C=N/NC(=S)Nc2cccnc2)c1O", "activity change, negative = inhibition": "inactive"}, {"compound": "COC(=O)c1cccc2nc3c(C(C)O)cccc3nc12", "note": "(stereo not drawn)", "activity change, negative = inhibition": "inactive"}, {"compound": "COc1ccccc1-c1cn[nH]c1-c1ccc(O)cc1O", "activity change, negative = inhibition": "inactive"}, {"compound": "Cc1ccc(O)c(N=CC2=C(O)c3ccccc3C2=O)c1", "activity change, negative = inhibition": "inactive"}, {"compound": "N=C1C(c2nc3ccccc3[nH]2)=C(O)CN1c1ccc(F)cc1", "activity change, negative = inhibition": "inactive"}, {"compound": "O=C1NC(=O)/C(=C/c2ccc(N3CCOCC3)o2)N1", "activity change, negative = inhibition": "inactive"}, {"compound": "CCOC(=O)c1c(=O)n(O)c2ccc(OC)cc2[n+]1[O-]", "activity change, negative = inhibition": "inactive"}, {"compound": "COc1cc2c(cc1OC)-c1c(OC)c(OC)cc3c1C(C2)N(C)CC3", "note": "(stereo not drawn)", "activity change, negative = inhibition": "inactive"}, {"compound": "COc1ccc2c(c1OC)CN1CCc3cc4c(cc3[C@@H]1[C@@H]2O)OCO4", "activity change, negative = inhibition": "inactive"}, {"compound": "C=CCOc1ccc(C(c2c(C(=O)O)[nH]c3ccccc23)c2c(C(=O)O)[nH]c3ccccc23)cc1", "activity change, negative = inhibition": "inactive"}, {"compound": "O=C(O)c1c2c(nc3ccccc13)/C(=C/c1ccc(O)cc1)CC2", "activity change, negative = inhibition": "inactive"}, {"compound": "COc1ccccc1NCc1cc(=O)oc2c(C)c(O)ccc12", "activity change, negative = inhibition": "inactive"}, {"compound": "O=C1CS/C(=N\\NC(=O)c2ccccc2)N1", "activity change, negative = inhibition": "inactive"}, {"compound": "COCC(C)N1CCC(n2nccc2NC(=O)CCCc2ccccc2)CC1", "note": "(stereo not drawn)", "activity change, negative = inhibition": "inactive"}, {"compound": "O=c1c2ccccc2nc(/C=C/c2ccc([N+](=O)[O-])o2)n1-c1ccc(O)cc1", "activity change, negative = inhibition": "inactive"}, {"compound": "CC(C)c1ccc(N2C(=O)/C(=C/N(C)C)SC2=S)cc1", "activity change, negative = inhibition": "inactive"}, {"compound": "O=C1N=c2ccccc2=C1c1sc(NS(=O)(=O)c2ccccc2)nc1O", "activity change, negative = inhibition": "inactive"}, {"compound": "O=c1oc2cc([N+](=O)[O-])ccc2nc1/C=C(\\O)c1cccc(Br)c1", "activity change, negative = inhibition": "inactive"}, {"compound": "Cc1ccc2c(c1Cl)NC(C(=O)O)C1CC(Sc3ccccc3[N+](=O)[O-])C(Cl)C21", "note": "(stereo not drawn)", "activity change, negative = inhibition": "inactive"}, {"compound": "CC1=C/C(=C(/c2cc(C)c(O)c(Br)c2)c2ccccc2S(=O)(=O)O)C=C(Br)C1=O", "activity change, negative = inhibition": "inactive"}, {"compound": "CCOc1nc(-c2ccccc2)c2cc(Br)ccc2n1", "activity change, negative = inhibition": "inactive"}, {"compound": "CCN1CCN(Cc2c(C(=O)N/N=C(\\C)c3ccc(Cl)c(Cl)c3)nnn2-c2nonc2N)CC1", "activity change, negative = inhibition": "inactive"}, {"compound": "CCCNc1nc2ccccc2n2c(C)nnc12", "activity change, negative = inhibition": "inactive"}, {"compound": "COCC1CCN(Cc2c(C(=O)N3CCN(C4CCCCC4)CC3)nc3ccccn23)C1", "note": "(stereo not drawn)", "activity change, negative = inhibition": "inactive"}, {"compound": "COc1ccc(OC)c(/C=C/C(=O)Nc2ccc(OC)nc2)c1", "activity change, negative = inhibition": "inactive"}, {"compound": "N=C(N)N=Nc1c(O)[nH]c2ccc(Br)cc12", "activity change, negative = inhibition": "inactive"}, {"compound": "O=C(O)c1ccc(/C=C2\\SC(=S)N(Nc3ccccc3)C2=O)cc1", "activity change, negative = inhibition": "inactive"}, {"compound": "Cc1ccccc1S(=O)(=O)NNC(=O)C(=O)NNc1ccccn1", "activity change, negative = inhibition": "inactive"}, {"compound": "CC(=O)CCS(=O)(=O)c1ccc(Oc2ccc(S(=O)(=O)CCC(C)=O)cc2)cc1", "activity change, negative = inhibition": "inactive"}, {"compound": "CN1CCc2c(sc(NC(=O)C3CCCN3S(=O)(=O)c3ccc(Cl)s3)c2C(N)=O)C1", "note": "(stereo not drawn)", "activity change, negative = inhibition": "inactive"}, {"compound": "O=C(NNC(=O)c1ccc(O)c(Cl)c1)c1cccc(S(=O)(=O)N2CCOCC2)c1", "activity change, negative = inhibition": "inactive"}, {"compound": "Nc1ccc2oc(-c3ccccc3Cl)cc(=O)c2c1O", "activity change, negative = inhibition": "inactive"}, {"compound": "Cc1cc2ccccc2n1CCNC(=O)c1ccc(Br)o1", "activity change, negative = inhibition": "inactive"}, {"compound": "NS(=O)(=O)c1ccc(N=Nc2ccc(=O)[nH]c2O)cc1", "activity change, negative = inhibition": "inactive"}, {"compound": "CC1=Nc2ccc(C)cc2/C1=C/c1c(N)n2c(S(=O)(=O)C(C)C)nsc2nc1=O", "activity change, negative = inhibition": "inactive"}, {"compound": "Cc1snc2sc(C(=O)c3ccc(Br)cc3)c(N)c12", "activity change, negative = inhibition": "inactive"}, {"compound": "CCCC(=O)Nc1ccc(NC(=O)c2cccs2)cn1", "activity change, negative = inhibition": "inactive"}, {"compound": "O=C(/C=C/Nc1ccc(S(=O)(=O)Nc2cnc3ccccc3n2)cc1)c1ccccc1", "activity change, negative = inhibition": "inactive"}, {"compound": "O=C(O)c1cc(-c2ccco2)nc2cc3ccccc3cc12", "activity change, negative = inhibition": "inactive"}, {"compound": "CC(=O)N1CCc2c(sc(NC(=O)C3CCCN3S(=O)(=O)c3cccs3)c2C#N)C1", "note": "(stereo not drawn)", "activity change, negative = inhibition": "inactive"}, {"compound": "CC1=NN2C(=N)/C(=C\\c3ccc(SCc4ccccc4)o3)C(=O)N=C2S1", "activity change, negative = inhibition": "inactive"}, {"compound": "CN(C)CC(O)COc1ccc(C(C)(C)c2ccc(OCC(O)CN(C)C)cc2)cc1", "note": "(stereo not drawn)", "activity change, negative = inhibition": "inactive"}, {"compound": "COc1cccc(/C=N/NC(=O)N/N=C/c2cccc(OC)c2O)c1O", "activity change, negative = inhibition": "inactive"}, {"compound": "COc1ccccc1N1C(=O)C2C(C(=O)c3ccccc3)=NN(c3ccccc3OC)C2C1=O", "note": "(stereo not drawn)", "activity change, negative = inhibition": "inactive"}, {"compound": "CSc1nsc2nc(=O)c(/C=C3\\C(C)=Nc4ccc(C)cc43)c(N)n12", "activity change, negative = inhibition": "inactive"}, {"compound": "N[C@@H](Cc1ccccc1)C(=O)N1CCC(C(=O)NCC(=O)Nc2ccc(F)cc2)CC1", "activity change, negative = inhibition": "inactive"}, {"compound": "O=C1S/C(=C\\c2cccs2)C(=O)N1c1ccc(O)cc1", "activity change, negative = inhibition": "inactive"}, {"compound": "COc1ccccc1/C=C1\\SC(=S)N(CCC(=O)Nc2cc(C)on2)C1=O", "activity change, negative = inhibition": "inactive"}, {"compound": "NC(=O)C(=O)N/N=C1\\CCc2ccccc21", "activity change, negative = inhibition": "inactive"}, {"compound": "N#C/C(=C\\c1cccc([N+](=O)[O-])c1)c1nnc2n1CCCCC2", "activity change, negative = inhibition": "inactive"}, {"compound": "Cc1c(Cl)cccc1NC(=O)C(=O)NNS(=O)(=O)c1ccc(F)cc1", "activity change, negative = inhibition": "inactive"}]}]}
